One block for each compound: values may come before it.
Experiments:
[1] = target: T1, Adenosine receptor A3 (Homo sapiens) (UniProt P0DMS8); test: Selectivity interaction (CEREP panel (Eurofins, binding assay)) EUB0000262b ADORA3; details: at 10 µM
T1 sequence (whole entry): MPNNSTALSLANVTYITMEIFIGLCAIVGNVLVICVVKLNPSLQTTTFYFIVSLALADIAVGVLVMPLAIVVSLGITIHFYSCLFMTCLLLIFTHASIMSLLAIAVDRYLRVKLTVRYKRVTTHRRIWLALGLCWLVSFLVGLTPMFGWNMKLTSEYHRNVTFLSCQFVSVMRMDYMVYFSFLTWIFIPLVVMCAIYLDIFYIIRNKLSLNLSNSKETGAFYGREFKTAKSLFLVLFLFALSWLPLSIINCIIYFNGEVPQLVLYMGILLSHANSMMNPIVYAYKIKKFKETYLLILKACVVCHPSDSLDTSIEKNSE

[2] = target: T1, Adenosine receptor A3 (Homo sapiens); test: Selectivity interaction (Enzyme panel (Eurofins-Cerep)) EUB0000262b ADORA3; details: at 10 µM
[3] = target: Peroxisome proliferator-activated receptor gamma (Homo sapiens) (UniProt P37231); test: Selectivity interaction (CEREP panel (Eurofins, binding assay)) EUB0000262b PPARG; details: at 10 µM
[4] = target: Peroxisome proliferator-activated receptor gamma (Homo sapiens) (UniProt P37231); test: Selectivity interaction (Enzyme panel (Eurofins-Cerep)) EUB0000262b PPARG; details: at 10 µM
[5] = target: Cholecystokinin receptor type A (Homo sapiens) (UniProt P32238); test: Selectivity interaction (CEREP panel (Eurofins, binding assay)) EUB0000262b CCKAR; details: at 10 µM
[6] = target: Cholecystokinin receptor type A (Homo sapiens) (UniProt P32238); test: Selectivity interaction (Enzyme panel (Eurofins-Cerep)) EUB0000262b CCKAR; details: at 10 µM
Histamine H1 receptor [7] = target: T2, Histamine H1 receptor (Homo sapiens, UniProt P35367); test: Selectivity interaction (CEREP panel (Eurofins, binding assay)) EUB0000262b HRH1; details: at 10 µM
Histamine H1 receptor [8] = target: T2, Histamine H1 receptor; test: Selectivity interaction (Enzyme panel (Eurofins-Cerep)) EUB0000262b HRH1; details: at 10 µM
[9] = target: Delta-type opioid receptor (Homo sapiens) (UniProt P41143); test: Selectivity interaction (CEREP panel (Eurofins, binding assay)) EUB0000262b OPRD1; details: at 10 µM
[10] = target: Delta-type opioid receptor (Homo sapiens) (UniProt P41143); test: Selectivity interaction (Enzyme panel (Eurofins-Cerep)) EUB0000262b OPRD1; details: at 10 µM
[11] = target: MAP/microtubule affinity-regulating kinase 3 (Homo sapiens) (UniProt P27448); test: Selectivity interaction (KinomeScan (DiscoverX)) EUB0000262b MARK3; details: at 1 µM
[12] = target: T3, Prostaglandin G/H synthase 2 (Homo sapiens) (UniProt P35354); test: Selectivity interaction (CEREP panel (Eurofins, binding assay)) EUB0000262b PTGS2; details: at 10 µM
T3 sequence (whole entry): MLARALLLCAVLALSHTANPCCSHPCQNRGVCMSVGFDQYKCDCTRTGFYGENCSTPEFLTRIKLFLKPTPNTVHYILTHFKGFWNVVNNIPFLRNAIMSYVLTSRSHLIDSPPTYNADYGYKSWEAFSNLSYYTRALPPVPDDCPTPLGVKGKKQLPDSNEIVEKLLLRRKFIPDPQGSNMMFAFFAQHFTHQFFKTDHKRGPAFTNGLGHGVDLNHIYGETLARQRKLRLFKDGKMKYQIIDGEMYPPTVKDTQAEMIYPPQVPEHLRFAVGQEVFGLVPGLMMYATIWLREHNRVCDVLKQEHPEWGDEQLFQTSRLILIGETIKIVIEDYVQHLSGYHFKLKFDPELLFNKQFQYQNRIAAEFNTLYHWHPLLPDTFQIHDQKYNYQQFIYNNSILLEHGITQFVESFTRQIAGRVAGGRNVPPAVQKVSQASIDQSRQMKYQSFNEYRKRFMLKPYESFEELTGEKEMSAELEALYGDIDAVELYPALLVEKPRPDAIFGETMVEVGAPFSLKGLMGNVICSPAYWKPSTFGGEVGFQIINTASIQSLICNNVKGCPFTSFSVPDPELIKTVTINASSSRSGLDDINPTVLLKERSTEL

[13] = target: T3, Prostaglandin G/H synthase 2 (Homo sapiens); test: Selectivity interaction (Enzyme panel (Eurofins-Cerep)) EUB0000262b PTGS2; details: at 10 µM
[14] = target: T4, Aurora kinase C (Homo sapiens) (UniProt Q9UQB9); test: Selectivity interaction (KinomeScan (DiscoverX)) EUB0000262b AURKC; details: at 1 µM
T4 sequence (whole entry): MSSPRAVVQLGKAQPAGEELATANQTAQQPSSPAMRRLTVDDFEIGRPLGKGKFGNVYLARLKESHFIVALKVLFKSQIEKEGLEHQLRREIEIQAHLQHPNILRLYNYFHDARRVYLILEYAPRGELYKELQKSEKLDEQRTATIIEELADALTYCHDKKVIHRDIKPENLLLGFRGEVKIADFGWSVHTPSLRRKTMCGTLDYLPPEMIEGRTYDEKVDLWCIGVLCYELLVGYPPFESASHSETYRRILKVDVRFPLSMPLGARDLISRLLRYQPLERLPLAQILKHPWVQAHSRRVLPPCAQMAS

[15] = target: Urotensin-2 receptor (Homo sapiens) (UniProt Q9UKP6); test: Selectivity interaction (CEREP panel (Eurofins, binding assay)) EUB0000262b UTS2R; details: at 10 µM
[16] = target: Urotensin-2 receptor (Homo sapiens) (UniProt Q9UKP6); test: Selectivity interaction (Enzyme panel (Eurofins-Cerep)) EUB0000262b UTS2R; details: at 10 µM
[17] = target: T5, Gamma-aminobutyric acid receptor subunit alpha-1 (Homo sapiens, UniProt P14867); test: Selectivity interaction (GPCR panel (PDSP screen)) EUB0000262b GABRA1
T5 sequence (P14867 whole entry): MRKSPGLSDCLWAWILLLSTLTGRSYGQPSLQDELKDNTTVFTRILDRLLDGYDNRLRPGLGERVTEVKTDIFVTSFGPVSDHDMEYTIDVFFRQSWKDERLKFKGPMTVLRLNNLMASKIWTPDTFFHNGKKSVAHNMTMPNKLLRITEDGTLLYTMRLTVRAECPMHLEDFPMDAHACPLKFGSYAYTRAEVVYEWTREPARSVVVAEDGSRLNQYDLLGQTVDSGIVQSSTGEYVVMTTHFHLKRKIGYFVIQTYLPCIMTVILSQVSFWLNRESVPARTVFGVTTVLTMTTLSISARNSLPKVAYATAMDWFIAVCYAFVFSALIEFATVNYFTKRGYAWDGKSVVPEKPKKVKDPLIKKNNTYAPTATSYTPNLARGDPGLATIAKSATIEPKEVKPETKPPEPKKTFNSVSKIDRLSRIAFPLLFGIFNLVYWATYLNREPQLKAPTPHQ

[18] = target: T6, Amine oxidase [flavin-containing] A (Homo sapiens, UniProt P21397); test: Selectivity interaction (CEREP panel (Eurofins, binding assay)) EUB0000262b MAOA; details: at 10 µM
[19] = target: T6, Amine oxidase [flavin-containing] A; test: Selectivity interaction (Enzyme panel (Eurofins-Cerep)) EUB0000262b MAOA; details: at 10 µM
[20] = target: T7, Alpha-1A adrenergic receptor (Homo sapiens, UniProt P35348); test: Selectivity interaction (Binding assay) EUB0000341aCl ADRA1A
T7 sequence (P35348 whole entry): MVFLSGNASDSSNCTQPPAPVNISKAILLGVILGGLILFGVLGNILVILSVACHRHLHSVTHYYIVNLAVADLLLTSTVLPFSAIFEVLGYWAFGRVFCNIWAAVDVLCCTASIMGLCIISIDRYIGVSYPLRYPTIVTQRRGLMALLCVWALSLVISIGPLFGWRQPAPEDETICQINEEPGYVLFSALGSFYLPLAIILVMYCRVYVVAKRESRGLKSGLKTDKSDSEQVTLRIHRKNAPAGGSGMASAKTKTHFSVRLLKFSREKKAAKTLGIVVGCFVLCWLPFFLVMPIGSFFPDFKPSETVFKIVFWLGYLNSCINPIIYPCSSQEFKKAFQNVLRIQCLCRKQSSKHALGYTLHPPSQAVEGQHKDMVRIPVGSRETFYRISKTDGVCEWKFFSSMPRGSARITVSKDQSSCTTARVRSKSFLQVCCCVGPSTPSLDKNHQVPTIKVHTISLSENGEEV

[21] = target: T8, Alpha-1B adrenergic receptor (Homo sapiens, UniProt P35368); test: Selectivity interaction (Binding assay) EUB0000341aCl ADRA1B
T8 sequence (P35368 whole entry): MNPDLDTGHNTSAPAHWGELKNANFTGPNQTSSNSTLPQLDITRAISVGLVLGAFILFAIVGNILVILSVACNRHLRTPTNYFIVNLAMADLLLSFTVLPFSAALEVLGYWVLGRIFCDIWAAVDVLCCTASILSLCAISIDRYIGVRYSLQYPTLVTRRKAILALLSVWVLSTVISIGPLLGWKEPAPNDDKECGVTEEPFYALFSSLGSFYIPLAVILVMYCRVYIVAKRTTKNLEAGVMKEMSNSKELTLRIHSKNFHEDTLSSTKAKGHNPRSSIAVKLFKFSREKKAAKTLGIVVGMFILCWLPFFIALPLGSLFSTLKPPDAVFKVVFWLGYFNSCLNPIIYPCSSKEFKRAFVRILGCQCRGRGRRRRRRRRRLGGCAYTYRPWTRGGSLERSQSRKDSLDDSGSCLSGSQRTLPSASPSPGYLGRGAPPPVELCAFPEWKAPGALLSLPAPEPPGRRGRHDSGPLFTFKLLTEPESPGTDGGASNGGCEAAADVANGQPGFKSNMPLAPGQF

[22] = target: Dual specificity tyrosine-phosphorylation-regulated kinase 1B (Homo sapiens, UniProt Q9Y463); test: Selectivity interaction (KinomeScan (DiscoverX)) EUB0000341aCl DYRK1B; details: at 1 µM
[23] = test system: Tyrosine-protein kinase ABL1 (Homo sapiens), P00519 [F317L]; test: (§1) Selectivity interaction (KinomeScan (DiscoverX)) EUB0000341aCl ABL1; details: at 1 µM
[24] = test system: Tyrosine-protein kinase ABL1 (Homo sapiens), P00519 [M351T]; test: as §1; details: at 1 µM
[25] = test system: Tyrosine-protein kinase ABL1 (Homo sapiens), P00519 [T315I]; test: as §1; details: at 1 µM
[26] = target: NT-3 growth factor receptor (Homo sapiens, UniProt Q16288); test: Selectivity interaction (KinomeScan (DiscoverX)) EUB0000341aCl NTRK3; details: at 1 µM
[27] = target: T9, Alpha-1A adrenergic receptor (Homo sapiens) (UniProt P35348); details: at 10 µM
T9 sequence (whole entry): T7 sequence (P35348 whole entry)

[28] = target: Alpha-1D adrenergic receptor (Homo sapiens) (UniProt P25100); details: at 10 µM
Sequence of Alpha-1D adrenergic receptor (Homo sapiens) (P25100 whole entry): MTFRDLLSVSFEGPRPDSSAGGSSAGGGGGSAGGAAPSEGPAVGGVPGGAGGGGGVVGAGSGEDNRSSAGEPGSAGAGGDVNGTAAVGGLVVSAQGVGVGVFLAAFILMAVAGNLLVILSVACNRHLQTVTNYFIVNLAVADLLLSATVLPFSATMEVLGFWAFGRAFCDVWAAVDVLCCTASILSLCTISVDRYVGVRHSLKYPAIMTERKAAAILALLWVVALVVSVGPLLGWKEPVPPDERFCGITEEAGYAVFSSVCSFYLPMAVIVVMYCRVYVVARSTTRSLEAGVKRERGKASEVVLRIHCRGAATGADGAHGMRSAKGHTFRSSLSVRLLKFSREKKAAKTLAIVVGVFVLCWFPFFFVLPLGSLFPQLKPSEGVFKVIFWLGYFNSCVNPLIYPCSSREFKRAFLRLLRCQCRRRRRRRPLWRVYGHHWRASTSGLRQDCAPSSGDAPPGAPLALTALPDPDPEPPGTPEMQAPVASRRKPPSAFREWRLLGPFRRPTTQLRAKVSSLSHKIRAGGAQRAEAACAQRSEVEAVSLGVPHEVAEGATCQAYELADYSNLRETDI

T2 sequence (P35367 whole entry): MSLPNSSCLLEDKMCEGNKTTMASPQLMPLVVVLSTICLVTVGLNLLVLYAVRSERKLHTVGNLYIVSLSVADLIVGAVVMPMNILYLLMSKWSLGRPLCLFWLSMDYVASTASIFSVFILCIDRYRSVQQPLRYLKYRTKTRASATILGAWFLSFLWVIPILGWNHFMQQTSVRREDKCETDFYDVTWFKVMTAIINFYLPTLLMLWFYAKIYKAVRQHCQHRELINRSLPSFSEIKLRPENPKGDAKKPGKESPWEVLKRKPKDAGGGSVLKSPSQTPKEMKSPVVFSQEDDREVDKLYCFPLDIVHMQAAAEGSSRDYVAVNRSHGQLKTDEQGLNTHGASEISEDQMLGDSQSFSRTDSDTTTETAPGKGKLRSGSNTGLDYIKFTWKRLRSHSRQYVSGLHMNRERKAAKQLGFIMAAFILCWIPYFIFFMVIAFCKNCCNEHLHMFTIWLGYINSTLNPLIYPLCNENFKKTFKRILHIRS
Sequence of Urotensin-2 receptor (Homo sapiens) (Q9UKP6 whole entry): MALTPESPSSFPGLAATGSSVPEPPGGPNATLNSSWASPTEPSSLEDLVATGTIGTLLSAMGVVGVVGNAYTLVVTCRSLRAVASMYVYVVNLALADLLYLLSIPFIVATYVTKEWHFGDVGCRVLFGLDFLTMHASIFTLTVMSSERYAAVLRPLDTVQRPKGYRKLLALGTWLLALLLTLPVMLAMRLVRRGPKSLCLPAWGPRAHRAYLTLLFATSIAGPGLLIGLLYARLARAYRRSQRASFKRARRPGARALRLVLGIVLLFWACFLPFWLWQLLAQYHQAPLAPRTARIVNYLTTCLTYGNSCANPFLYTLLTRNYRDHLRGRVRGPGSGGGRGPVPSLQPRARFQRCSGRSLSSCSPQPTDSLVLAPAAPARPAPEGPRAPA
T6 sequence (P21397 whole entry): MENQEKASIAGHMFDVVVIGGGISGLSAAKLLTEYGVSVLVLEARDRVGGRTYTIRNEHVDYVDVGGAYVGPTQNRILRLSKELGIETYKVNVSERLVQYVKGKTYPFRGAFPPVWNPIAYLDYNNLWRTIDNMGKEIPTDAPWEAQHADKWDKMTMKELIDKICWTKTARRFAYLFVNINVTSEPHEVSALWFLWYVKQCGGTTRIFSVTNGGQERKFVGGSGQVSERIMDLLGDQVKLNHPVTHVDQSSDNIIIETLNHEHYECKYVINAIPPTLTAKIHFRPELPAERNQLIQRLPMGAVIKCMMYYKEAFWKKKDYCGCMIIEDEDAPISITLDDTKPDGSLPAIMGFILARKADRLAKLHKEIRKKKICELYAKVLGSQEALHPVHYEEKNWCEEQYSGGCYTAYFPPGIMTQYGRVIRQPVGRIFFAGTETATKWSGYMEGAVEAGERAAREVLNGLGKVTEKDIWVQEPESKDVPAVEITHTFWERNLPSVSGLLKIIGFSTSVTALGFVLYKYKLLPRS
Sequence of Delta-type opioid receptor (Homo sapiens) (P41143 whole entry): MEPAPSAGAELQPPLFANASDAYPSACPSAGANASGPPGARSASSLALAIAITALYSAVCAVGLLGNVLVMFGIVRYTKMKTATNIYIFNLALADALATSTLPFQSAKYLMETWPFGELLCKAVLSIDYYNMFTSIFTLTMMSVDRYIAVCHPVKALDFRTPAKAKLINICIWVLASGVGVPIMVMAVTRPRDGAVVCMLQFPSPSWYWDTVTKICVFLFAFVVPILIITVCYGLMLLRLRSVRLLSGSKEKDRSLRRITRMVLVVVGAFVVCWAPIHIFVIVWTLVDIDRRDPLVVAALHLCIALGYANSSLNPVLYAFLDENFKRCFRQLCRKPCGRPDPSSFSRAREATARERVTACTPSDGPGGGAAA
Sequence of Cholecystokinin receptor type A (Homo sapiens) (P32238 whole entry): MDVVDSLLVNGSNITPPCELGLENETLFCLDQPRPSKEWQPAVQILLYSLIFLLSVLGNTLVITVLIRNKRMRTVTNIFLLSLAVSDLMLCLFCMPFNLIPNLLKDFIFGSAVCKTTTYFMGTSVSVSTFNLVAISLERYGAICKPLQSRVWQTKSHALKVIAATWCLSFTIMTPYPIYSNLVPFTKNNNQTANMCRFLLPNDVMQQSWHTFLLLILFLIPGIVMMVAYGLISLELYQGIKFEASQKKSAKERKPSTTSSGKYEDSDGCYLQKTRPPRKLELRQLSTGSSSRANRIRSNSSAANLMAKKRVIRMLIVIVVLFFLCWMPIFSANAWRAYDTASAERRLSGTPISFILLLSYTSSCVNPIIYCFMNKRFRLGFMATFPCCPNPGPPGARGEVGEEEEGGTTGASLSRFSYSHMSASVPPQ
Sequence of Peroxisome proliferator-activated receptor gamma (Homo sapiens) (P37231 whole entry): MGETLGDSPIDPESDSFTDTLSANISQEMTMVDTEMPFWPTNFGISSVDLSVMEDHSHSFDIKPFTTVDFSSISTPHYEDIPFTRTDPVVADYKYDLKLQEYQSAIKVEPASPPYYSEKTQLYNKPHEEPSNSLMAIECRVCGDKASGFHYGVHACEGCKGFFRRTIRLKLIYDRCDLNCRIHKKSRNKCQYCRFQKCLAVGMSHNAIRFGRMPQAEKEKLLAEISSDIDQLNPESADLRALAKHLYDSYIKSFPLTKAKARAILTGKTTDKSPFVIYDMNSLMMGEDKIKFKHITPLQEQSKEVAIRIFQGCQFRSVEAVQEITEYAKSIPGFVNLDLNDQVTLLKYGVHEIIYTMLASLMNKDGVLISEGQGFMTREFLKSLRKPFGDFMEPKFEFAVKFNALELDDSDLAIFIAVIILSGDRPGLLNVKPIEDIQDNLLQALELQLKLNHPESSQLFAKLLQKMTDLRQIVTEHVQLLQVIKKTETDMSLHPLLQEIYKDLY
Sequence of NT-3 growth factor receptor (Q16288 32-839 limits assumed): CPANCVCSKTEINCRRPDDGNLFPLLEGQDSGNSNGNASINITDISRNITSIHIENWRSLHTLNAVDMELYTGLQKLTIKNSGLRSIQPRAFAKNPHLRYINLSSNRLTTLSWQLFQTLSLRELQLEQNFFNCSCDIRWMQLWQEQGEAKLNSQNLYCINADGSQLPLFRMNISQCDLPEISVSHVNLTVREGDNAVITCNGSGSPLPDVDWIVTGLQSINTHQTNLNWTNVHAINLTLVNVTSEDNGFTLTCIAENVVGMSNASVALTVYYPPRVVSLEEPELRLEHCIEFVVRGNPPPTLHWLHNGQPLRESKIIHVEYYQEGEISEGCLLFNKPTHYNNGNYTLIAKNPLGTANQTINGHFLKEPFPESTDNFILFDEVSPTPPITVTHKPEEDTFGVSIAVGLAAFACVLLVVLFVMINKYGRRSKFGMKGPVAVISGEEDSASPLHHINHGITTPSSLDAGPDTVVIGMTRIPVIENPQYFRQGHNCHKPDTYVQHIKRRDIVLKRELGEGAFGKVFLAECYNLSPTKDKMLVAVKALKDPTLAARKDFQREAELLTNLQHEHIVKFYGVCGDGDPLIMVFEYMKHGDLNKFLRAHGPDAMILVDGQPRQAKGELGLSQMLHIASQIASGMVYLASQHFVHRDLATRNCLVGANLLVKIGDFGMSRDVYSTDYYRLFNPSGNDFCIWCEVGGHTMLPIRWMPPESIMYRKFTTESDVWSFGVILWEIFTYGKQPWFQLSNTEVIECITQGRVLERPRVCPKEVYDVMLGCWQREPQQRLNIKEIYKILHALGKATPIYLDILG
Sequence of MAP/microtubule affinity-regulating kinase 3 (Homo sapiens) (P27448 whole entry, looked up): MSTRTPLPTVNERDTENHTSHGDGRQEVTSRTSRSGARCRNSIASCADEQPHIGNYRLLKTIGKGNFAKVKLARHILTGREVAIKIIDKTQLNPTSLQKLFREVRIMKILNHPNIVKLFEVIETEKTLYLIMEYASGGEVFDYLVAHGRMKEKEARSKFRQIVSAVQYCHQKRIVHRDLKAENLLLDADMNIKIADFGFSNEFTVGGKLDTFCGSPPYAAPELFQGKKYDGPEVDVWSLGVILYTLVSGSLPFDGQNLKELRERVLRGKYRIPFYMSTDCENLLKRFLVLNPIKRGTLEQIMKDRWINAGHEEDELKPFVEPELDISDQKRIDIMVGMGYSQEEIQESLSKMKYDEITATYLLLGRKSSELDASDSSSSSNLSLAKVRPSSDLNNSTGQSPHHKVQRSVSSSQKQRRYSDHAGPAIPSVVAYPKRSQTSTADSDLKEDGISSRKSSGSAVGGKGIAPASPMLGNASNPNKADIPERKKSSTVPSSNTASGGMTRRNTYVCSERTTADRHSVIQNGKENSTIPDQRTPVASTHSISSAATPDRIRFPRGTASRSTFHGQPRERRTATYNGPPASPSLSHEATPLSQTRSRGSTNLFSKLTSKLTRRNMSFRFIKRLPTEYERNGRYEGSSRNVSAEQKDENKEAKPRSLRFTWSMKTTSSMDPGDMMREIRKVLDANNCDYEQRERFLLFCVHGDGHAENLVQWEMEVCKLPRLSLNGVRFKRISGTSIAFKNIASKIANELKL

% of inhibition [1]: 71.6%
% of inhibition [2]: 71.6%
% of inhibition [3]: 99.1%
% of inhibition [4]: 99.1%
% of inhibition [5]: 98.9%
% of inhibition [6]: 98.9%
% of inhibition (Histamine H1 receptor [7]): 69.2%
% of inhibition (Histamine H1 receptor [8]): 69.2%
% of inhibition [9]: 77.9%
% of inhibition [10]: 77.9%
% of control [11]: 38%
% of inhibition [12]: 62.2%
% of inhibition [13]: 62.2%
% of control [14]: 9%
% of inhibition [15]: 94.9%
% of inhibition [16]: 94.9%
Ki [17]: 794 nM
% of inhibition [18]: 74.5%
% of inhibition [19]: 74.5%
SMILES: CN(C)CC#Cc1ccc(OCCCc2sc(N3CCc4cccc(C(=O)Nc5nc6ccccc6s5)c4C3)nc2C(=O)O)c(F)c1 [A-1155463]

IC50 [20]: 2700 nM
IC50 [21]: 1200 nM
% of control [22]: 37%
% of control [23]: 0%
% of control [24]: 0%
% of control [25]: 0%
% of control [26]: 0%
% of inhibition [27]: 55%
% of inhibition [28]: 61%
SMILES: C[C@@H](c1cccc(C#N)c1)n1cc(Cl)cc(C(N)=O)c1=N
